Assay results: ChEMBL document CHEMBL3421596, “A facile synthesis and microtubule-destabilizing properties of 4-(1H-benzo[d]imidazol-2-yl)-furazan-3-amines” (Eur J Med Chem, 2015)
Active and inactive are the calls of the source. The calls are words filed in the database; no cut-off is given here.

What was measured:
[1] = Cytotoxicity against human HCT15 cells; assay type: functional; conditions: HCT-15
[2] = test system: HT-29; test: Cytotoxicity against human HT-29 cells; assay type: functional
[3] = Cytotoxicity against human HCT116 cells; assay type: functional; conditions: HCT-116
[4] = test system: SF-295; test: Cytotoxicity against human SF295 cells; assay type: functional
[5] = Cytotoxicity against human NCI-ADR-RES cells; assay type: functional; conditions: read-out: pGI50 (converted)
[6] = test system: TK-10; test: Cytotoxicity against human TK10 cells; assay type: functional
[7] = test system: ACHN; test: Cytotoxicity against human ACHN cells; assay type: functional
[8] = test system: MDA-MB-435; test: Cytotoxicity against human MDA-MB-435 cells; assay type: functional; conditions: read-out: pGI50 (converted)
[9] = Cytotoxicity against human OVCAR3 cells; assay type: functional; conditions: OVCAR-3, read-out: pGI50 (converted)
[10] = test system: SNB-75; test: Cytotoxicity against human SNB75 cells; assay type: functional
[11] = test system: MDA-MB-231; test: Cytotoxicity against human MDA-MB-231 cells; assay type: functional
[12] = test system: MDA-MB-468; test: Cytotoxicity against human MDA-MB-468 cells; assay type: functional
[13] = Cytotoxicity against human PC3 cells; assay type: functional; conditions: PC-3
[14] = test system: SF-268; test: Cytotoxicity against human SF268 cells; assay type: functional
[15] = test system: T47D; test: Cytotoxicity against human T47D cells; assay type: functional
[16] = test system: COLO 205; test: Cytotoxicity against human COLO205 cells; assay type: functional
[17] = Cytotoxicity against human UACC62 cells; assay type: functional; conditions: UACC-62
[18] = test system: SN12C; test: Cytotoxicity against human SN12C cells; assay type: functional
[19] = test system: MCF7; test: Cytotoxicity against human MCF7 cells; assay type: functional
[20] = test system: SK-MEL-2; test: Cytotoxicity against human SK-MEL-2 cells; assay type: functional
[21] = test system: IGROV-1; test: Cytotoxicity against human IGROV1 cells; assay type: functional
[22] = test system: RPMI-8226; test: Cytotoxicity against human RPMI8226 cells; assay type: functional
[23] = test system: BT-549; test: Cytotoxicity against human BT549 cells; assay type: functional
[24] = test system: NCI-H226; test: Cytotoxicity against human NCI-H226 cells; assay type: functional
[25] = test system: NCI-H460; test: Cytotoxicity against human NCI-H460 cells; assay type: functional
[26] = test system: SK-MEL-5; test: Cytotoxicity against human SK-MEL-5 cells; assay type: functional
[27] = Cytotoxicity against human NCI60 cells; assay type: functional
[28] = test system: Paracentrotus lividus; test: Antiproliferative activity in sea urchin embryo assessed as antimitotic activity by measuring cleavage arrest exposed for 8 to 20 mins after fertilization and 45 to 55 mins before first mitotic cycle completion measured 2.5 to […] after fertilization; assay type: functional
[29] = test system: SR; test: Cytotoxicity against human SR cells; assay type: functional
[30] = test system: SK-MEL-28; test: Cytotoxicity against human SK-MEL-28 cells; assay type: functional
[31] = test system: DU-145; test: Cytotoxicity against human DU145 cells; assay type: functional
[32] = test system: 786-0; test: Cytotoxicity against human 786-0 cells; assay type: functional
[33] = test system: RXF 393; test: Cytotoxicity against human RXF393 cells; assay type: functional; conditions: read-out: pGI50 (converted)
[34] = test system: CCRF-CEM; test: Cytotoxicity against human CCRF-CEM cells; assay type: functional
[35] = test system: A549; test: Cytotoxicity against human A549 cells; assay type: functional
[36] = Cytotoxicity against human UO31 cells; assay type: functional; conditions: UO-31
[37] = test system: HL-60(TB); test: Cytotoxicity against human HL-60(TB) cells; assay type: functional
[38] = test system: MOLT-4; test: Cytotoxicity against human MOLT4 cells; assay type: functional
[39] = Cytotoxicity against human OVCAR5 cells; assay type: functional; conditions: OVCAR-5
[40] = Cytotoxicity against human OVCAR8 cells; assay type: functional; conditions: OVCAR-8, read-out: pGI50 (converted)
[41] = test system: SF-539; test: Cytotoxicity against human SF539 cells; assay type: functional; conditions: read-out: pGI50 (converted)
[42] = Cytotoxicity against human OVCAR4 cells; assay type: functional; conditions: OVCAR-4
[43] = test system: Malme-3M; test: Cytotoxicity against human MALME-3M cells; assay type: functional
[44] = test system: U-251; test: Cytotoxicity against human U251 cells; assay type: functional
[45] = test system: HOP-62; test: Cytotoxicity against human HOP62 cells; assay type: functional
[46] = test system: SW-620; test: Cytotoxicity against human SW620 cells; assay type: functional
[47] = test system: NCI-H322M; test: Cytotoxicity against human NCI-H322M cells; assay type: functional
[48] = Cytotoxicity against human SKOV3 cells; assay type: functional; conditions: SK-OV-3
[49] = test system: LOX IMVI; test: Cytotoxicity against human LOXIMVI cells; assay type: functional
[50] = test system: Paracentrotus lividus; test: Antiproliferative activity in sea urchin embryo assessed as destabilization of microtubule by measuring embryo spinning after 15 mins to 20 hrs; assay type: functional
[51] = test system: NCI-H522; test: Cytotoxicity against human NCI-H522 cells; assay type: functional
[52] = test system: M14; test: Cytotoxicity against human M14 cells; assay type: functional
[53] = Cytotoxicity against human Hs578T cells; assay type: functional; conditions: Hs-578T
[54] = test system: A498; test: Cytotoxicity against human A498 cells; assay type: functional
[55] = test system: HCC 2998; test: Cytotoxicity against human HCC2998 cells; assay type: functional
[56] = test system: K562; test: Cytotoxicity against human K562 cells; assay type: functional
[57] = test system: SNB-19; test: Cytotoxicity against human SNB19 cells; assay type: functional
[58] = test system: NCI-H23; test: Cytotoxicity against human NCI-H23 cells; assay type: functional
[59] = Cytotoxicity against human UACC257 cells; assay type: functional; conditions: UACC-257
[60] = test system: Paracentrotus lividus; test: Antiproliferative activity in sea urchin embryo assessed as destabilization of microtubule by tuberculate eggs after 15 mins to 20 hrs; assay type: functional, organism-based
[61] = test system: HOP-92; test: Cytotoxicity against human HOP92 cells; assay type: functional
[62] = test system: KM12; test: Cytotoxicity against human KM12 cells; assay type: functional
[63] = test system: Paracentrotus lividus; test: Antiproliferative activity in sea urchin embryo assessed as antimitotic activity by measuring cleavage alteration exposed for 8 to 20 mins after fertilization and 45 to 55 mins before first mitotic cycle completion measured 2.5 to […] after fertilization; assay type: functional
[64] = test system: CAKI-1; test: Cytotoxicity against human Caki1 cells; assay type: functional

SMILES: COc1cc(Cn2c(-c3nonc3N)nc3ccccc32)ccc1C
- GI50 [1]: 457 nM
- GI50 [2]: 363 nM
- GI50 [3]: 513 nM
- GI50 [4]: 389 nM
- GI50 [5]: 389 nM
- GI50 [6]: 1410 nM
- GI50 [7]: 724 nM
- GI50 [8]: 170 nM
- GI50 [9]: 309 nM
- GI50 [10]: 263 nM
- GI50 [11]: 1450 nM
- GI50 [12]: 229 nM
- GI50 [13]: 339 nM
- GI50 [14]: 776 nM
- GI50 [15]: 575 nM
- GI50 [16]: 372 nM
- GI50 [17]: 617 nM
- GI50 [18]: 676 nM
- GI50 [19]: 389 nM
- GI50 [20]: 407 nM
- GI50 [21]: 724 nM
- GI50 [22]: 447 nM
- GI50 [23]: 513 nM
- GI50 [24]: 955 nM
- GI50 [25]: 355 nM
- GI50 [26]: 372 nM
- GI50 [27]: 479 nM
- EC [28]: 2 µM
- GI50 [29]: 389 nM
- GI50 [30]: 794 nM
- GI50 [31]: 513 nM
- GI50 [32]: 646 nM
- GI50 [33]: 269 nM
- GI50 [34]: 380 nM
- GI50 [35]: 562 nM
- GI50 [36]: 575 nM
- GI50 [37]: 275 nM
- GI50 [38]: 646 nM
- GI50 [39]: 776 nM
- GI50 [40]: 759 nM
- GI50 [41]: 200 nM
- GI50 [42]: 646 nM
- GI50 [43]: 525 nM
- GI50 [44]: 537 nM
- GI50 [45]: 617 nM
- GI50 [46]: 331 nM
- GI50 [47]: 537 nM
- GI50 [48]: 537 nM
- GI50 [49]: 661 nM
- EC [50]: >4 µM
- GI50 [51]: 251 nM
- GI50 [52]: 550 nM
- GI50 [53]: 288 nM
- GI50 [54]: 89.1 nM
- GI50 [55]: 1450 nM
- GI50 [56]: 389 nM
- GI50 [57]: 724 nM
- GI50 [58]: 1150 nM
- GI50 [59]: 417 nM
- Activity [60]: Active
- GI50 [61]: 363 nM
- GI50 [62]: 437 nM
- EC [63]: 0.2 µM

SMILES: COc1cccc(Cn2c(-c3nonc3N)nc3ccccc32)c1
- GI50 [1]: 380 nM
- GI50 [2]: 316 nM
- GI50 [3]: 389 nM
- GI50 [5]: 316 nM
- GI50 [6]: 724 nM
- GI50 [7]: 550 nM
- GI50 [8]: 182 nM
- GI50 [9]: 263 nM
- GI50 [10]: 295 nM
- GI50 [11]: 955 nM
- GI50 [12]: 240 nM
- GI50 [13]: 447 nM
- GI50 [14]: 759 nM
- GI50 [15]: 501 nM
- GI50 [16]: 372 nM
- GI50 [17]: 513 nM
- GI50 [18]: 646 nM
- GI50 [19]: 398 nM
- GI50 [20]: 288 nM
- GI50 [21]: 603 nM
- GI50 [22]: 363 nM
- GI50 [23]: 363 nM
- GI50 [64]: 417 nM
- GI50 [24]: 525 nM
- GI50 [25]: 363 nM
- GI50 [26]: 331 nM
- GI50 [27]: 457 nM
- EC [28]: 2 µM
- GI50 [29]: 263 nM
- GI50 [30]: 813 nM
- GI50 [31]: 603 nM
- GI50 [32]: 437 nM
- GI50 [33]: 275 nM
- GI50 [34]: 339 nM
- GI50 [35]: 617 nM
- GI50 [36]: 589 nM
- GI50 [37]: 263 nM
- GI50 [38]: 724 nM
- GI50 [39]: 550 nM
- GI50 [40]: 525 nM
- GI50 [41]: 214 nM
- GI50 [42]: 8710 nM
- GI50 [43]: 525 nM
- GI50 [44]: 437 nM
- GI50 [45]: 468 nM
- GI50 [46]: 363 nM
- GI50 [47]: 871 nM
- GI50 [48]: 437 nM
- GI50 [49]: 537 nM
- EC [50]: >5 µM
- GI50 [51]: 229 nM
- GI50 [52]: 275 nM
- GI50 [53]: 339 nM
- GI50 [54]: 275 nM
- GI50 [55]: 1170 nM
- GI50 [56]: 347 nM
- GI50 [57]: 741 nM
- GI50 [58]: 832 nM
- GI50 [59]: 316 nM
- Activity [60]: Active
- GI50 [61]: 372 nM
- GI50 [62]: 501 nM
- EC [63]: 0.2 µM
